The target in this assay is human SARM1(50-724) (Homo sapiens (Human), UniProt Q6SZW1). Description: SARM1 NAD hydrolase biological assay (HPLC readout of NAD and NAM peak areas). Type of assay: biochemical. Particulars: 40 nM human SARM1(50-724), 0.3 mM NMN, 20 μM NAD, 60 minutes at room temperature, read-out: Average IC50. How it is done:
The reaction was incubated at room temperature for 60 minutes and quenched with 20 μL of 0.4% formic acid. […] Total run time for each sample was 4 minutes. The run was isocratic with 1.5% methanol in 40 mM ammonium acetate pH 6.0. Samples were run at a flow rate of 0.8 ml/min at 55° C. Peak areas of NAD and NAM were determined using OpenLAB CDS (Chem Station edition) software. For dose-response, the compound was diluted serially 1:3 in DMSO and added to the reaction starting at a final compound concentration of 100 μM in 1% DMSO.

pIC50: −log10 of the molar value. Where two headings read alike, the source gives them in different places.

The values below come from patent US11629136B1, “Substituted pyridine derivatives as SARM1 inhibitors” (Nura Bio, Inc., priority 2021, dated 2023).

Sequence of human SARM1(50-724) (Q6SZW1 50-724): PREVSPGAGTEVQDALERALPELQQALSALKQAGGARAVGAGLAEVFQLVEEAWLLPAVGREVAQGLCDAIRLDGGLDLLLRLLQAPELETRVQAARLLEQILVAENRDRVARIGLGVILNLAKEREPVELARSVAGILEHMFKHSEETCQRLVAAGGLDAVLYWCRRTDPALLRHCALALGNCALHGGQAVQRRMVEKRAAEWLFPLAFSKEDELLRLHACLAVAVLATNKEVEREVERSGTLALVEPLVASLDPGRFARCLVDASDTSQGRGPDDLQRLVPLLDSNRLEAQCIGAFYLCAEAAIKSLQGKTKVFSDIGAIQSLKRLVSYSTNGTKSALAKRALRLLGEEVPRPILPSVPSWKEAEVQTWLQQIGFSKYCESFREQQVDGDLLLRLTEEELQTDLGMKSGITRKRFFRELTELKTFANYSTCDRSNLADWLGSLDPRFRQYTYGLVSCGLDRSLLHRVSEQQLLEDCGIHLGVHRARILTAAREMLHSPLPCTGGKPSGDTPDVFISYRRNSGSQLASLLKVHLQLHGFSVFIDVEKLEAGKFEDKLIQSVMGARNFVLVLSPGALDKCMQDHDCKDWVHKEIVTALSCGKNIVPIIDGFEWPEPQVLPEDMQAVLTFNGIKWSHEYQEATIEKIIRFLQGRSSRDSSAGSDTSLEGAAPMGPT

Take `FC(F)(F)Cc1nc(Cc2ccncc2Cl)c[nH]1` [Example 27, 3-Chloro-4-((2-(2,2,2-trifluoroethyl)-1H-imidazol-4-yl)methyl)pyridine]: the pIC50 (class symbols) is greater than 6.00. For the compound `FC(F)(F)Cc1nc(Cc2ccnc(Cl)c2)c[nH]1` [Example 28, 2-Chloro-4-((2-(2,2,2-trifluoroethyl)-1H-imidazol-4-yl)methyl)pyridine], the pIC50 (given as numeric bound) is less than 4.30.

On to `Fc1cc(Cc2c[nH]c(CC(F)(F)F)n2)ccn1` [Example 29, 2-Fluoro-4-((2-(2,2,2-trifluoroethyl)-3H-imidazol-4-yl)methyl)pyridine], for which the pIC50 (given as numeric bound) was less than 4.30. Consider `Fc1cnccc1Cc1c[nH]c(CC(F)(F)F)n1` [Example 36, 3-Fluoro-4-((2-(2,2,2-trifluoroethyl)-1H-imidazol-4-yl)methyl)pyridine], for which the pIC50 (class symbols) is greater than 6.00. On to `OC(c1nc(Cc2ccncc2)c[nH]1)(C(F)(F)F)C(F)(F)F` [Example 39, 1,1,1,3,3,3-Hexafluoro-2-(4-(pyridin-4-ylmethyl)-1H-imidazol-2-yl)propan-2-ol], for which, where the note is “class symbols”, the pIC50 is 5.00 to 6.00.

The pIC50 is the negative decadic logarithm of the IC50, by convention in mol/L.
